Test results: article PMC8333425, “Discovery of a dual Ras and ARF6 inhibitor from a GPCR endocytosis screen” (Nature Communications, 2021)

Columns and labels:
Experiment in all cases: KINOMEscan kinase binding assay
[1] = molecular target: T1, 384 kinases from the human genome (Homo sapiens, UniProt Q9H3Y6); details: kinase SRMS (Entrez SRMS)
T1 construct: purchased Eurofin/DiscoverX
In short: (§1)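 A panel of 384 human kinases was profiled by KINOMEscan binding in the presence of 10 µM compound. Kinase–ligand binding was given as percent of DMSO control, averaged from duplicates in a single run, with an S(10) selectivity score.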

[2] = molecular target: T2, 384 kinases from the human genome (Homo sapiens, UniProt P25098); details: kinase GRK2 (Entrez ADRBK1)
T2 construct: purchased Eurofin/DiscoverX
In short: as §1

[3] = molecular target: T3, 384 kinases from the human genome (Homo sapiens, UniProt O00238); details: kinase BMPR1B (Entrez BMPR1B)
T3 construct: purchased Eurofin/DiscoverX
In short: as §1

[4] = molecular target: T4, 384 kinases from the human genome (Homo sapiens, UniProt Q13464); details: kinase ROCK1 (Entrez ROCK1)
T4 construct: purchased Eurofin/DiscoverX
In short: as §1

[5] = molecular target: T5, 384 kinases from the human genome (Homo sapiens, UniProt Q92918); details: kinase HPK1 (Entrez MAP4K1)
T5 construct: purchased Eurofin/DiscoverX
In short: as §1

[6] = molecular target: T6, 384 kinases from the human genome (Homo sapiens, UniProt P20794); details: kinase MAK (Entrez MAK)
T6 construct: purchased Eurofin/DiscoverX
In short: as §1

[7] = molecular target: T7, 384 kinases from the human genome (Homo sapiens, UniProt Q8WXR4); details: kinase MYO3B (Entrez MYO3B)
T7 construct: purchased Eurofin/DiscoverX
In short: as §1

[8] = molecular target: T8, 384 kinases from the human genome (Homo sapiens, UniProt Q8TBX8); details: kinase PIP5K2C (Entrez PIP4K2C)
T8 construct: purchased Eurofin/DiscoverX
In short: as §1

[9] = molecular target: T9, 384 kinases from the human genome (Homo sapiens, UniProt Q96PN8); details: kinase TSSK3 (Entrez TSSK3)
T9 construct: purchased Eurofin/DiscoverX
In short: as §1

[10] = molecular target: T10, 384 kinases from the human genome (Homo sapiens, UniProt O95382); details: kinase ASK2 (Entrez MAP3K6)
T10 construct: purchased Eurofin/DiscoverX
In short: as §1

[11] = molecular target: T11, 384 kinases from the human genome (Homo sapiens, UniProt P36507); details: kinase MEK2 (Entrez MAP2K2)
T11 construct: purchased Eurofin/DiscoverX
In short: as §1

[12] = molecular target: T12, 384 kinases from the human genome (Homo sapiens, UniProt P35590); details: kinase TIE1 (Entrez TIE1)
T12 construct: purchased Eurofin/DiscoverX
In short: as §1

[13] = molecular target: T13, 384 kinases from the human genome (Homo sapiens, UniProt O15264); details: kinase p38-delta (Entrez MAPK13)
T13 construct: purchased Eurofin/DiscoverX
In short: as §1

[14] = molecular target: T14, 384 kinases from the human genome (Homo sapiens, UniProt Q6ZWH5); details: kinase NEK10 (Entrez NEK10)
T14 construct: purchased Eurofin/DiscoverX
In short: as §1

[15] = molecular target: T15, 384 kinases from the human genome (Homo sapiens, UniProt Q8N568); details: kinase DCAMKL2 (Entrez DCLK2)
T15 construct: purchased Eurofin/DiscoverX
In short: as §1

[16] = molecular target: T16, 384 kinases from the human genome (Homo sapiens, UniProt O15530); details: kinase PDPK1 (Entrez PDPK1)
T16 construct: purchased Eurofin/DiscoverX
In short: as §1

[17] = molecular target: T17, 384 kinases from the human genome (Homo sapiens, UniProt P48730); details: kinase CSNK1D (Entrez CSNK1D)
T17 construct: purchased Eurofin/DiscoverX
In short: as §1

[18] = molecular target: T18, 384 kinases from the human genome (Homo sapiens, UniProt P08581); details: kinase MET (Entrez MET)
T18 construct: purchased Eurofin/DiscoverX
In short: as §1

[19] = molecular target: T19, 384 kinases from the human genome (Homo sapiens, UniProt O60331); details: kinase PIP5K1C (Entrez PIP5K1C)
T19 construct: purchased Eurofin/DiscoverX
In short: as §1

[20] = molecular target: T20, 384 kinases from the human genome (Homo sapiens, UniProt Q13177); details: kinase PAK2 (Entrez PAK2)
T20 construct: purchased Eurofin/DiscoverX
In short: as §1

[21] = molecular target: T21, 384 kinases from the human genome (Homo sapiens, UniProt Q32MK0); details: kinase MLCK (Entrez MYLK3)
T21 construct: purchased Eurofin/DiscoverX
In short: as §1

[22] = molecular target: T22, 384 kinases from the human genome (Homo sapiens, UniProt O94806); details: kinase PRKD3 (Entrez PRKD3)
T22 construct: purchased Eurofin/DiscoverX
In short: as §1

[23] = molecular target: T23, 384 kinases from the human genome (Homo sapiens, UniProt Q8TDX7); details: kinase NEK7 (Entrez NEK7)
T23 construct: purchased Eurofin/DiscoverX
In short: as §1

[24] = molecular target: T24, 384 kinases from the human genome (Homo sapiens, UniProt P31152); details: kinase ERK4 (Entrez MAPK4)
T24 construct: purchased Eurofin/DiscoverX
In short: as §1

[25] = molecular target: T25, 384 kinases from the human genome (Homo sapiens, UniProt O14757); details: kinase CHEK1 (Entrez CHEK1)
T25 construct: purchased Eurofin/DiscoverX
In short: as §1

[26] = molecular target: T26, 384 kinases from the human genome (Homo sapiens, UniProt O75716); details: kinase STK16 (Entrez STK16)
T26 construct: purchased Eurofin/DiscoverX
In short: as §1

T12 sequence (P35590 22-1138): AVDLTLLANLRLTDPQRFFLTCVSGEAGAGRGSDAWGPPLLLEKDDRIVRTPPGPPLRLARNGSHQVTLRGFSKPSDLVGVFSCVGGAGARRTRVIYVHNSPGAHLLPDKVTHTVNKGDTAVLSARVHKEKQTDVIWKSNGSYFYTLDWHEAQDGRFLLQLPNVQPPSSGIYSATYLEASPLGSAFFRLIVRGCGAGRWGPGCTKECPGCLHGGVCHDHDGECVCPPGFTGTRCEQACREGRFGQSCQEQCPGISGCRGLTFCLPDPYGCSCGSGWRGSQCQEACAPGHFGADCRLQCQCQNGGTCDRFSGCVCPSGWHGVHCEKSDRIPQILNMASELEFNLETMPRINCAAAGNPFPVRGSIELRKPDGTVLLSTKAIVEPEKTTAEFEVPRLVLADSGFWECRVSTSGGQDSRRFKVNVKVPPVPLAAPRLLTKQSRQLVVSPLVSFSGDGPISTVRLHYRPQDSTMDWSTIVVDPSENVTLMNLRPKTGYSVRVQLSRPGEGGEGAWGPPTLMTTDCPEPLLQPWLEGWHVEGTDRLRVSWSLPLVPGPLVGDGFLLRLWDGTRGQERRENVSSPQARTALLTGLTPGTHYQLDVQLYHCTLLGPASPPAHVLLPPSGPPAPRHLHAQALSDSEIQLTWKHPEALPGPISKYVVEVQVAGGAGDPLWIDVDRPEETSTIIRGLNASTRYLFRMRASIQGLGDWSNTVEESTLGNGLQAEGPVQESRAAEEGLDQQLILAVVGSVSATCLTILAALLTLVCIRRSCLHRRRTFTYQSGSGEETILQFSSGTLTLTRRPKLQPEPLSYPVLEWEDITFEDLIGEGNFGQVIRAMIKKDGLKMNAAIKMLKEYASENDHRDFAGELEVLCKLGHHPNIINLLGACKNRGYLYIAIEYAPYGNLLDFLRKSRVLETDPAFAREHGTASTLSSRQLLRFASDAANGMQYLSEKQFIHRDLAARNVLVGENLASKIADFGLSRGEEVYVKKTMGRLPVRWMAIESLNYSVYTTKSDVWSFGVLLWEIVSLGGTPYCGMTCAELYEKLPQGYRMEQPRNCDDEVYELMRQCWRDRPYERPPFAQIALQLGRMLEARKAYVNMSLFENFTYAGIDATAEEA
T14 sequence (Q6ZWH5 whole entry): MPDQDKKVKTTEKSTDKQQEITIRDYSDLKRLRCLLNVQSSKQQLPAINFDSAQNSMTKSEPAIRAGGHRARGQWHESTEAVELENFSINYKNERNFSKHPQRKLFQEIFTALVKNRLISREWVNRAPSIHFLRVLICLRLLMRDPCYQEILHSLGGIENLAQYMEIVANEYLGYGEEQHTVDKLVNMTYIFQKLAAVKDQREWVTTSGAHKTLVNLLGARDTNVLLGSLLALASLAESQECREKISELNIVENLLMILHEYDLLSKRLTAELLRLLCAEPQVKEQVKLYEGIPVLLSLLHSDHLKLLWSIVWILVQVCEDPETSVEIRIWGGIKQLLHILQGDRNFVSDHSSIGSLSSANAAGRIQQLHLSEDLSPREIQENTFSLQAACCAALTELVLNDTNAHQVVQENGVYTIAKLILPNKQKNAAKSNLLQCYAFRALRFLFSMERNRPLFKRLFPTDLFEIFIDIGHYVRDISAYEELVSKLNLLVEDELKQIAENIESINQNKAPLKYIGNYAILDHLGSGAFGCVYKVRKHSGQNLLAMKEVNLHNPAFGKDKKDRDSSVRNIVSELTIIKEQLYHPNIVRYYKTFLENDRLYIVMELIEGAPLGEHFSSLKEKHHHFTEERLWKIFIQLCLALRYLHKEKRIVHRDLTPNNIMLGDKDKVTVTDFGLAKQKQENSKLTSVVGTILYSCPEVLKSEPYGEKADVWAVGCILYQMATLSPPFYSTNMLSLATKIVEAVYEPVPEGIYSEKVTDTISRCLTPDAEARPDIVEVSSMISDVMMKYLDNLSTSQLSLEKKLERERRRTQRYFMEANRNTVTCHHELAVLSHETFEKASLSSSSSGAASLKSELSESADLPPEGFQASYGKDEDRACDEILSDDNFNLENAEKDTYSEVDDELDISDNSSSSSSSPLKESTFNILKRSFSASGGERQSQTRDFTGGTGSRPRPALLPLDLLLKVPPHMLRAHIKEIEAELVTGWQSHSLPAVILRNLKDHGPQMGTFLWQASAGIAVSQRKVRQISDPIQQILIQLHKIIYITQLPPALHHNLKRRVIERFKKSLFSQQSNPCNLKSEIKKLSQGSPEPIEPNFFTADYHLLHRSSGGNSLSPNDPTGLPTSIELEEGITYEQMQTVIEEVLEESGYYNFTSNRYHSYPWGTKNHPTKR
T15 sequence (Q8N568 whole entry): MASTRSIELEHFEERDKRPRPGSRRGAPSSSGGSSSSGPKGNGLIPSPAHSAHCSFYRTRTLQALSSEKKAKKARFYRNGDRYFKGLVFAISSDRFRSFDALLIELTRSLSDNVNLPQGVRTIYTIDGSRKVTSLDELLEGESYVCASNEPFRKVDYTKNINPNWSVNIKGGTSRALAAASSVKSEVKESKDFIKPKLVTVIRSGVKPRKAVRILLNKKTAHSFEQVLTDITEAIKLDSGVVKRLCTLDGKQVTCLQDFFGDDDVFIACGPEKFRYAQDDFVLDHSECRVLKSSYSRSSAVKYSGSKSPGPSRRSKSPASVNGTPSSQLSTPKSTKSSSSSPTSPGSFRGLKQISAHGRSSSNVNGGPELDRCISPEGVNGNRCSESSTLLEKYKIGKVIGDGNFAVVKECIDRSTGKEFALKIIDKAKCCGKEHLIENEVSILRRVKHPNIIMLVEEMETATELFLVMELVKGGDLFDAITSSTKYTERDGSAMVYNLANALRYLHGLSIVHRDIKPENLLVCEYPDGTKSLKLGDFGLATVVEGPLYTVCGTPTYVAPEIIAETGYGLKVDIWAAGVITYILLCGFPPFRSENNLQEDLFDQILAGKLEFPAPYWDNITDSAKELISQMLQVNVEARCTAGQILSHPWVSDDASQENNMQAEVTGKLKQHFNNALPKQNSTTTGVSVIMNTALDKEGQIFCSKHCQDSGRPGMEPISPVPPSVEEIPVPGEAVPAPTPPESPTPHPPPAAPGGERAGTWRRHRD
T19 sequence (O60331 whole entry): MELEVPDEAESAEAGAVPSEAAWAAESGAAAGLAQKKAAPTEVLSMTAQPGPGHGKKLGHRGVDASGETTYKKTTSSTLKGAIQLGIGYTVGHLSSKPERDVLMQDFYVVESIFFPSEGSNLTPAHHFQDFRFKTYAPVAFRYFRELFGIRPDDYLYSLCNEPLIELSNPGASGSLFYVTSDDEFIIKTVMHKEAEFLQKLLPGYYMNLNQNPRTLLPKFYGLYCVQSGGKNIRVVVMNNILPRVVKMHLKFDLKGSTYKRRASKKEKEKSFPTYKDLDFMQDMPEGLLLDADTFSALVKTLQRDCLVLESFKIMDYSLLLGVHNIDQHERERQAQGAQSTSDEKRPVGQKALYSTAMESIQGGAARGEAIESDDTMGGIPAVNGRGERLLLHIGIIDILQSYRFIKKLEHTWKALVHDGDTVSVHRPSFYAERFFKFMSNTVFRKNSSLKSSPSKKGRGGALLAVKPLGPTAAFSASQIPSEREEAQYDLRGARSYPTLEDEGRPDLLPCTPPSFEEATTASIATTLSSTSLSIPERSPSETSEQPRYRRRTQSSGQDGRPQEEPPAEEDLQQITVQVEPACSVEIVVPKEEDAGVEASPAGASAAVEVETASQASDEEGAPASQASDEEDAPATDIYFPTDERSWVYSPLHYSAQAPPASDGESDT
T4 sequence (Q13464 whole entry): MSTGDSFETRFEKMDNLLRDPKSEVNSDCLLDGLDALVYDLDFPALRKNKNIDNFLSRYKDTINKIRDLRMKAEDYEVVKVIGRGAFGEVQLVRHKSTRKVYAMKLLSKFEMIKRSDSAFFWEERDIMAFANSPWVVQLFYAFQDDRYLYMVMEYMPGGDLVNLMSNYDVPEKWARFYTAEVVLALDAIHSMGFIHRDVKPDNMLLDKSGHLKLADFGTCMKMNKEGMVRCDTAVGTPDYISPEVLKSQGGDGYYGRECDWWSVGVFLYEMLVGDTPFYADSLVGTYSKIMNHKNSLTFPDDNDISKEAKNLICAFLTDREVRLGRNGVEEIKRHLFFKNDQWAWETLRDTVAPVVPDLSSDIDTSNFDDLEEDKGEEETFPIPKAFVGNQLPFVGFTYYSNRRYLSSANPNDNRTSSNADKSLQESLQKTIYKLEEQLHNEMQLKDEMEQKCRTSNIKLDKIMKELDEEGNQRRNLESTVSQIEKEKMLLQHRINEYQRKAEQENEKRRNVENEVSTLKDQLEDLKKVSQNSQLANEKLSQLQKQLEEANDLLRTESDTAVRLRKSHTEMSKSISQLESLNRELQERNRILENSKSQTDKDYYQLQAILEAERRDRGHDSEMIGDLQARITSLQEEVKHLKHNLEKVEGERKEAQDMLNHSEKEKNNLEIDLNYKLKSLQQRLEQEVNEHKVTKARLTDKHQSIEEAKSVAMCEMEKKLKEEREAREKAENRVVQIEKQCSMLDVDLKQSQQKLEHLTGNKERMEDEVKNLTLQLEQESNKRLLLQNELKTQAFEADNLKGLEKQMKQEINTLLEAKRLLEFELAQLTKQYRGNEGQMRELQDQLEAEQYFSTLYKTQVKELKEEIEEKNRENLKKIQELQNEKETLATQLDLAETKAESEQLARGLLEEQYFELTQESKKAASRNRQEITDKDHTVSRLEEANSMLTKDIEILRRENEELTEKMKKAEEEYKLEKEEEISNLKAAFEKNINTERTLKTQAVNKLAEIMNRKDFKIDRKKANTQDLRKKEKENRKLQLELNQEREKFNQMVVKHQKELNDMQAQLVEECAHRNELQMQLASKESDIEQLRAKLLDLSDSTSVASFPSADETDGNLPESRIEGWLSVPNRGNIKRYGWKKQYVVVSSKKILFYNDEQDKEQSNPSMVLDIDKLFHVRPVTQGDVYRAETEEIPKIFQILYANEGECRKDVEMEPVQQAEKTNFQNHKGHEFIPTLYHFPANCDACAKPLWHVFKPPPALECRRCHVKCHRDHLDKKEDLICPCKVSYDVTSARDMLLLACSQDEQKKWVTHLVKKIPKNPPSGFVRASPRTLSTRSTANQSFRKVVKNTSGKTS

## CC(C)C(=O)N1CCN(c2ccc(NC(=O)c3cc4ccccc4o3)cc2Cl)CC1 [Compound 21]
[1]
  Percent Control: 100%
[2]
  Percent Control: 99%
[3]
  Percent Control: 82%
[4]
  Percent Control: 88%
[5]
  Percent Control: 75%
[6]
  Percent Control: 84%
[7]
  Percent Control: 58%
[8]
  Percent Control: 65%
[9]
  Percent Control: 100%
[10]
  Percent Control: 100%
[11]
  Percent Control: 76%
[12]
  Percent Control: 100%
[13]
  Percent Control: 88%
[14]
  Percent Control: 95%
[15]
  Percent Control: 99%
[16]
  Percent Control: 97%
[17]
  Percent Control: 86%
[18]
  Percent Control: 91%
[19]
  Percent Control: 100%
[20]
  Percent Control: 100%
[21]
  Percent Control: 90%
[22]
  Percent Control: 98%
[23]
  Percent Control: 100%
[24]
  Percent Control: 100%
[25]
  Percent Control: 92%
[26]
  Percent Control: 100%
